Experimental data published in patent publication US20260007617A1, “METHOD FOR TREATING RENAL CELL CARCINOMA OR CANCER” (Lantern Pharma Inc., priority 2023, published 2026).
pIC50: −log10 of the molar value.

Experiments:
Type in all cases: cell-based
[1] = system: X7860; experiment: cell viability IC50 over 72 hours, X7860 kidney cell line
Experimental: (§1) FIG. 4 details the sensitivity of various cell lines to LP-184, showing cell death over 72 hours. Sensitivity, gauged by IC50 data, reflects how effectively a substance can inhibit a particular biological or biochemical function. […] This IC50 value, indicating the concentration needed to reduce cell viability by 50%, is key to understanding the compound's efficacy and the temporal response of the cells to the substance. Such analyses are vital for new drug development and therapeutic approaches, offering important insights into how cells react to different compounds over time.
as §1, with “Sensitivity,” for “FIG. 4 details the sensitivity of various cell lines to LP-184, showing cell death over 72 hours. Sensitivity,”

[2] = system: A498; experiment: cell viability IC50 over 72 hours, A498 kidney cell line; settings: for pIC50: Homo sapiens, A498 cell line, Kidney, 72 hours
Experimental: as §1
as §1, with “Sensitivity,” for “FIG. 4 details the sensitivity of various cell lines to LP-184, showing cell death over 72 hours. Sensitivity,”

[3] = system: ACHN; experiment: cell viability IC50 over 72 hours, ACHN kidney cell line; settings: Homo sapiens
Experimental: as §1
as §1, with “Sensitivity,” for “FIG. 4 details the sensitivity of various cell lines to LP-184, showing cell death over 72 hours. Sensitivity,”

[4] = system: CAK11; experiment: cell viability IC50 over 72 hours, CAK11 kidney cell line
Experimental: as §1
as §1, with “Sensitivity,” for “FIG. 4 details the sensitivity of various cell lines to LP-184, showing cell death over 72 hours. Sensitivity,”

[5] = system: RXF393; experiment: cell viability IC50 over 72 hours, RXF393 kidney cell line; settings: for pIC50: Homo sapiens, RXF 393, RXF393 cell line, Kidney, 72 hours
Experimental: as §1
as §1, with “Sensitivity,” for “FIG. 4 details the sensitivity of various cell lines to LP-184, showing cell death over 72 hours. Sensitivity,”

[6] = system: SN12C; experiment: cell viability IC50 over 72 hours, SN12C kidney cell line; settings: Homo sapiens
Experimental: as §1
as §1, with “Sensitivity,” for “FIG. 4 details the sensitivity of various cell lines to LP-184, showing cell death over 72 hours. Sensitivity,”

[7] = system: TK10; experiment: cell viability IC50 over 72 hours, TK10 kidney cell line; settings: Homo sapiens, TK-10
Experimental: as §1
as §1, with “Sensitivity,” for “FIG. 4 details the sensitivity of various cell lines to LP-184, showing cell death over 72 hours. Sensitivity,”

[8] = system: UO31; experiment: cell viability IC50 over 72 hours, UO31 kidney cell line; settings: Homo sapiens, UO-31
Experimental: as §1
as §1, with “Sensitivity,” for “FIG. 4 details the sensitivity of various cell lines to LP-184, showing cell death over 72 hours. Sensitivity,”

[9] = system: 786O; experiment: sensitivity of renal cell line 786O to LP-184; settings: 786O cell line
Text: (§2) By contrast, the RPE1 cell lines acted as a negative control, showcasing a distinct reaction to the treatment.

[10] = system: 769P; experiment: sensitivity of renal cell line 769P to LP-184; settings: 769P cell line
Text: as §2

pIC50 [3] | Compound | pIC50 [1] | sensitivity of cell line (in words) ([2]; A498 clear cell renal carcinoma cell line) | pIC50 [2] | pIC50 [4] | pIC50 [5] | sensitivity of cell line (in words) ([5]; RXF393 clear cell renal carcinoma cell line) | pIC50 [6] | pIC50 [7] | pIC50 [8] | sensitivity of cell line (in words) [9] | sensitivity of cell line (in words) [10]
6.65 | CC1=C(CN(O)C(N)=O)C2=C(C)C3(CC3)[C@@](C)(O)C(=O)C2=C1 [LP-184, (−)-hydroxyureamethyl acylfulvene] | 6.48 | high sensitivity | 6.75 | 6.55 | 6.82 | high sensitivity | 6.46 | 6.50 | 6.75 | low sensitivity | low sensitivity
5.95 | CC1=C(CN(O)C(N)=O)C2=C(C)C3(CC3)[C@](C)(O)C(=O)C2=C1 [LP-284, (+)-hydroxyureamethyl acylfulvene] | 5.65 |  | 5.87 | 5.72 | 6.48 |  | 5.58 | 5.70 | 6.60 |  | 
